Converted amounts (≈) assume the structure as drawn. Where two headings read alike, the source gives them in different places.

For 4 compounds, MIC results are on record in patent publication US12691107B2, “Methods for the treatment and prevention of lung infections caused by gram-positive bacteria, fungus, or virus by administration of tafenoquine” (priority 2020, dated 2026).

Type in all cases: cell-based
Test [1] relates to M. tuberculosis [ATCC #27294]. In words: MIC against M. tuberculosis in 7H9 media. The conditions noted are these: Mycobacterium tuberculosis, read-out: MIC.
The next test deals with Staphylococcus aureus. The test can be described thus: Antibacterial MIC (broth microdilution).
The subject of another test is Streptococcus pneumoniae. The test can be described thus: Antibacterial MIC (broth microdilution). The conditions noted are these: Streptococcus pneumoniae, CA-MHB with 3% LHB.
The subject of another test is P. variotii. In words: Antifungal MIC (RPMI-1640 microdilution). To be noted: Paecilomyces variotii, read-out: MIC 100% inhibition; isolate MYA-3630.
Another test has as its system Rhizopus arrhizus. In words: Antifungal MIC (RPMI-1640 microdilution).
Another test deals with Sporothrix sp. In words: Antifungal MIC (RPMI-1640 microdilution).
In another test the test system is Apophysomyces sp. In words: Antifungal MIC (RPMI-1640 microdilution).
A further test deals with Saksenaea sp. The test can be described thus: Antifungal MIC (RPMI-1640 microdilution).
The test system of another test is E. coli. The test can be described thus: Antibacterial MIC (broth microdilution). As for the experimental part: Growth Medium—Cation adjusted Mueller-Hinton broth was used as the test medium. Broth for panel preparation was prepared from commercial dehydrated medium (Difco formulation, BD Diagnostics, catalog number 275730).
Dilution of Investigational Agents—Polystyrene test tubes were used to prepare the drug dilutions and sterile U-shaped 96-well polystyrene microtiter trays were used for performing the MIC assays. Stock solutions of the investigational agents were prepared at concentrations 100-times the highest concentration to be tested (6400-1.25 μg/ml) using dimethyl sulfoxide. Aliquots of the stock solutions were dispensed into polypropylene vials and stored at −20° C. Further dilutions (1:50) were made in the culture medium (cation-adjusted Mueller-Hinton medium).
After the dilutions of the working 2-fold investigational antibacterial solutions were prepared, 50 μL of each concentration was transferred into rows of the first 10 wells of each 12-well column of the U-shaped disposable 96-well microtiter trays using a multichannel pipettor. The 11th well in each row served as the sterility control, and the 12th well contained only culture medium to serve as the growth control for each isolate. In like manner, the control drug for the organism being tested was prepared in a separate 96 well panel exactly as described above. A 50 μL volume of the standardized inoculum suspension of each test isolate was prepared in culture medium to directly inoculate each test well of the drug containing microtiter tray.
Inoculum Preparation—Colonies of each strain generated on sheep blood agar plates with overnight growth at 35° C. in ambient air were used to directly prepare a suspension equivalent in density to the 0.5 McFarland opacity standard. The exact turbidity of each suspension was determined using a desktop portable photometer. For panels containing 2× drug concentrations, a 1:100 dilution of the McFarland organism suspension was prepared in cation-adjusted Mueller-Hinton broth and 50 μL aliquots of each test (and control) strain was added to each well of the designated rows of the microtiter trays using a multichannel pipettor. The target inoculum concentration was 5×10^5 CFU/ml in each well.
Trays were removed and each well were inspected for evidence of growth (turbidity). The MIC was defined as the lowest concentration of the investigational agent and the control drug that prevents visibly discernible growth in the test wells.

A further test relates to A. baumannii. In words: Antibacterial MIC (broth microdilution). To be noted: Acinetobacter baumannii.
The next test concerns P. aeruginosa. In words: Antibacterial MIC (broth microdilution). To be noted: Pseudomonas aeruginosa.
The next test concerns K. pneumoniae. In words: Antibacterial MIC (broth microdilution). The conditions noted are these: Klebsiella pneumoniae.

For `NNC(=O)c1ccncc1` [Isoniazid], the MIC in [1] (ATCC27294, 168 h, 7H9 with BSA, DPPC and cholesterol, 1 week) is 0.2 µM (≈ 0.0274 µg/mL); in test [1] (ATCC27294, 168 h, 7H9 with casitone and DPPC, 1 week) it was 0.07 µM (≈ 0.0096 µg/mL); in test [1] (ATCC27294, 168 h, 7H9 with glucose and BSA, 1 week) it was 0.2 µM (≈ 0.0274 µg/mL); in test [1] (ATCC27294, 168 h, 7H9 with glucose and casitone, 1 week), 0.1 µM (≈ 0.0137 µg/mL); in test [1] (ATCC27294, 336 h, 7H9 with BSA, DPPC and cholesterol, 2 weeks), 0.3 µM (≈ 0.0411 µg/mL); in [1] (ATCC27294, 336 h, 7H9 with casitone and DPPC, 2 weeks), 0.1 µM (≈ 0.0137 µg/mL). The MIC in [1] (ATCC27294, 336 h, 7H9 with glucose and BSA, 2 weeks) is 0.3 µM (≈ 0.0411 µg/mL); in [1] (ATCC27294, 336 h, 7H9 with glucose and casitone, 2 weeks), 0.15 µM (≈ 0.0206 µg/mL).

`CN[C@H](CC(C)C)C(=O)N[C@H]1C(=O)N[C@@H](CC(N)=O)C(=O)N[C@H]2C(=O)N[C@H]3C(=O)N[C@H](C(=O)N[C@H](C(=O)O)c4cc(O)cc(O)c4-c4cc3ccc4O)[C@H](O)c3ccc(c(Cl)c3)Oc3cc2cc(c3O[C@@H]2O[C@H](CO)[C@@H](O)[C@H](O)[C@H]2O[C@H]2C[C@](C)(N)[C@H](O)[C@H](C)O2)Oc2ccc(cc2Cl)[C@H]1O` [Vancomycin]: the MIC is 1 µg/mL (≈ 0.69 µM) in the test with Staphylococcus aureus (Staphylococcus aureus); 1 µg/mL (≈ 0.69 µM) against Staphylococcus aureus (Staphylococcus aureus, ATCC29213); 1 µg/mL (≈ 0.69 µM) against Staphylococcus aureus (isolate 6229); not above 0.125 µg/mL against Streptococcus pneumoniae (ATCC49619, isolate ATCC 49619); not above 0.125 µg/mL in the test with Streptococcus pneumoniae (isolate CO314937); 0.25 µg/mL (≈ 0.173 µM) against Streptococcus pneumoniae (isolate MD77773).

For `CC[C@@H]([C@H](C)O)n1ncn(-c2ccc(N3CCN(c4ccc(OC[C@@H]5CO[C@@](Cn6cncn6)(c6ccc(F)cc6F)C5)cc4)CC3)cc2)c1=O` [Posaconazole], the MIC in the test on P. variotii was not above 0.03 µg/mL; with Rhizopus arrhizus (read-out: MIC 100% inhibition, isolate 99-880), 1 µg/mL (≈ 1.43 µM); with Rhizopus arrhizus (read-out: MIC 100% inhibition, isolate 99-892), 0.25 µg/mL (≈ 0.357 µM); in the test with Rhizopus arrhizus (read-out: MIC 100% inhibition, isolate RAI) it was 0.125 µg/mL (≈ 0.178 µM); in the test on Sporothrix sp. (read-out: MIC 100% inhibition, isolate Sporo1) it was 0.06 µg/mL (≈ 0.0856 µM); in the test on Sporothrix sp. (read-out: MIC 100% inhibition, isolate Sporo2), 1 µg/mL (≈ 1.43 µM). The MIC in the test on Sporothrix sp. (read-out: MIC 100% inhibition, isolate Sporo3) was 0.06 µg/mL (≈ 0.0856 µM); in the test with Apophysomyces sp. (read-out: MIC 100% inhibition, isolate Apo1), 0.06 µg/mL (≈ 0.0856 µM); with Apophysomyces sp. (read-out: MIC 100% inhibition, isolate Apo2), not above 0.03 µg/mL; in the test with Apophysomyces sp. (read-out: MIC 100% inhibition, isolate Apo3) it was 0.5 µg/mL (≈ 0.713 µM); with Saksenaea sp. (read-out: MIC 100% inhibition, isolate Sak1) it was not above 0.03 µg/mL; in the test on Saksenaea sp. (read-out: MIC 100% inhibition, isolate Sak2), 0.06 µg/mL (≈ 0.0856 µM). The MIC in the test on Saksenaea sp. (read-out: MIC 100% inhibition, isolate Sak3) was not above 0.03 µg/mL.

For the compound `C[C@@H](O)[C@H]1C(=O)N2C(C(=O)O)=C(S[C@@H]3CN[C@H](C(=O)N(C)C)C3)[C@H](C)[C@H]12` [Meropenem], the MIC is not above 0.125 µg/mL in the test with E. coli (Escherichia coli, ATCC25922, isolate ATCC 25922, read-out: MIC); not above 0.125 µg/mL in the test on E. coli (Escherichia coli, isolate J4243 (MO72), read-out: MIC); not above 0.125 µg/mL with E. coli (isolate J4244 (JJ1886)); not above 0.125 µg/mL with A. baumannii (ATCC17978, isolate ATCC 17978); more than 64 µg/mL with A. baumannii (isolate AR-88); 64 µg/mL (≈ 167 µM) in the test with A. baumannii (isolate AR-273). In addition, the MIC was 0.25 µg/mL (≈ 0.652 µM) against P. aeruginosa (ATCC27853, isolate ATCC 27853); more than 64 µg/mL against P. aeruginosa (isolate AR-230); 8 µg/mL (≈ 20.9 µM) in the test on P. aeruginosa (isolate J4242); not above 0.125 µg/mL in the test with K. pneumoniae (ATCC70063, isolate ATCC 70063); 64 µg/mL (≈ 167 µM) in the test with K. pneumoniae (isolate AR-97); more than 64 µg/mL with K. pneumoniae (isolate AR-113).
